Experimental data published in ChEMBL document CHEMBL1201862, “PubChem BioAssay data set” (2004).
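The compound was tested at five concentrations on cells cultured in 96-well plates, with a 48-hour exposure period. GI50: concentration for 50% inhibition of growth.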 Calls of active or inactive are those of the source. Cut-off read from the data, not from the text of the source: active = GI50 up to about 1.1 µM and inactive = higher.

What was measured:
Test in all cases: growth of human tumour cells (NCI), 48 h
ACHN = system: ACHN
CAKI-1 = system: CAKI-1
DU-145 = system: DU-145
HCT-15 = system: HCT-15
HOP-62 = system: HOP-62
K562 = system: K562
M14 = system: M14
MDA-MB-435 = system: MDA-MB-435
Malme-3M = system: Malme-3M
NCI-H460 = system: NCI-H460
NCI-H522 = system: NCI-H522
OVCAR-4 = system: OVCAR-4
OVCAR-5 = system: OVCAR-5
RXF 393 = system: RXF 393
SF-295 = system: SF-295
SK-MEL-28 = system: SK-MEL-28
SNB-19 = system: SNB-19
SNB-75 = system: SNB-75
SR = system: SR
UACC-62 = system: UACC-62

SMILES	GI50 (ACHN)	GI50 (CAKI-1)	GI50 (DU-145)	GI50 (HCT-15) [µM]	GI50 (HOP-62)	GI50 (K562)	GI50 (M14)	GI50 (MDA-MB-435)	GI50 (Malme-3M)	GI50 (NCI-H460)	GI50 (NCI-H522)	GI50 (OVCAR-4)	GI50 (OVCAR-5)	GI50 (RXF 393)	GI50 (SF-295)	GI50 (SK-MEL-28)	GI50 (SNB-19)	GI50 (SNB-75)	GI50 (SR)	GI50 (UACC-62)
NC(Cc1ncccn1)C(=O)O (stereo not given)	> 100 µM (inactive)	> 100 µM (inactive)	> 100 µM (inactive)	> 100	> 100 µM (inactive)	> 100 µM (inactive)	> 100 µM (inactive)	> 100 µM (inactive)	> 100 µM (inactive)	> 100 µM (inactive)	> 100 µM (inactive)	> 100 µM (inactive)	> 100 µM (inactive)	> 100 µM (inactive)	> 100 µM (inactive)	> 100 µM (inactive)	> 100 µM (inactive)	> 100 µM (inactive)	> 100 µM (inactive)	> 100 µM (inactive)
CO/N=C\c1cc(O)c(O)c(/C=N/OC)c1	29.6 µM (inactive)	23.3 µM (inactive)	39.5 µM (inactive)	33.3	51.4 µM (inactive)	29.8 µM (inactive)	33.3 µM (inactive)	50.5 µM (inactive)	52.7 µM (inactive)	23.1 µM (inactive)	14.1 µM (inactive)	24.9 µM (inactive)	> 100 µM (inactive)	51.2 µM (inactive)	48 µM (inactive)	> 100 µM (inactive)	59.6 µM (inactive)	87.5 µM (inactive)	5.83 µM (inactive)	38.8 µM (inactive)
CSc1ccc(/C=C2\N=C(c3ccccc3)N(/N=C3\C(=O)Nc4ccccc43)C2=O)cc1	> 100 µM (inactive)	> 100 µM (inactive)	> 100 µM (inactive)	> 100	> 100 µM (inactive)	> 100 µM (inactive)	> 100 µM (inactive)	> 100 µM (inactive)	> 100 µM (inactive)	> 100 µM (inactive)	> 100 µM (inactive)	> 100 µM (inactive)	> 100 µM (inactive)	> 100 µM (inactive)	> 100 µM (inactive)	> 100 µM (inactive)	> 100 µM (inactive)	> 100 µM (inactive)	22.6 µM (inactive)	> 100 µM (inactive)
O=C(/C=C/c1ccc(OCc2ccccc2)c(OCc2ccccc2)c1)OCc1ccccc1	> 100 µM (inactive)	> 100 µM (inactive)	> 100 µM (inactive)	> 100	> 100 µM (inactive)	> 100 µM (inactive)	> 100 µM (inactive)	> 100 µM (inactive)	> 100 µM (inactive)	> 100 µM (inactive)	> 100 µM (inactive)	> 100 µM (inactive)	> 100 µM (inactive)	> 100 µM (inactive)	> 100 µM (inactive)	> 100 µM (inactive)	> 100 µM (inactive)	> 100 µM (inactive)	> 100 µM (inactive)	> 100 µM (inactive)
COc1ccc(-c2cc(-c3ccc(Nc4ccnc5cc(Cl)ccc45)cc3)[nH]c(=O)c2C#N)cc1	> 100 µM (inactive)	> 100 µM (inactive)	> 100 µM (inactive)	> 100	80 µM (inactive)	> 100 µM (inactive)	> 100 µM (inactive)	> 100 µM (inactive)	> 100 µM (inactive)	> 100 µM (inactive)	> 100 µM (inactive)	> 100 µM (inactive)	> 100 µM (inactive)	> 100 µM (inactive)	> 100 µM (inactive)	> 100 µM (inactive)	77.4 µM (inactive)	> 100 µM (inactive)	> 100 µM (inactive)	> 100 µM (inactive)
CC(=O)c1c(SCCN2CCCCCC2)n(-c2ccccc2)c(=S)n(-c2ccccc2)c1=O	1.68 µM (inactive)	3.85 µM (inactive)	2.17 µM (inactive)	5.61	19.5 µM (inactive)	2.61 µM (inactive)	2.15 µM (inactive)	12.9 µM (inactive)	1.51 µM (inactive)	24.7 µM (inactive)	1.43 µM (inactive)	20.9 µM (inactive)	24.4 µM (inactive)	1.73 µM (inactive)	35.9 µM (inactive)	11.2 µM (inactive)	51.1 µM (inactive)	13.8 µM (inactive)	1.09 µM (active)	7.85 µM (inactive)
N#C/C(=C\c1ccc(F)cc1)c1nc(-c2cc3ccccc3oc2=O)cs1	22 µM (inactive)	53.6 µM (inactive)	38.6 µM (inactive)	97.5	8.28 µM (inactive)	> 100 µM (inactive)	13.8 µM (inactive)	54.2 µM (inactive)	15.7 µM (inactive)	33.5 µM (inactive)	17.9 µM (inactive)	10.4 µM (inactive)	> 100 µM (inactive)	18.6 µM (inactive)	14 µM (inactive)	44.7 µM (inactive)	11.8 µM (inactive)	7.01 µM (inactive)	> 100 µM (inactive)	15 µM (inactive)
CN(C)CCCCN1c2ccccc2Sc2ccc(C(=O)c3ccccc3)cc21	2.94 µM (inactive)	2.19 µM (inactive)	3.63 µM (inactive)	3.51	3.13 µM (inactive)	1.57 µM (inactive)	1.67 µM (inactive)	1.9 µM (inactive)	1.72 µM (inactive)	2.24 µM (inactive)	2.91 µM (inactive)	3.23 µM (inactive)	5.64 µM (inactive)	1.22 µM (inactive)	2.15 µM (inactive)	1.95 µM (inactive)	4.06 µM (inactive)	2.34 µM (inactive)	3.83 µM (inactive)	2.37 µM (inactive)
Nc1ncnc2c1ncn2C1OC(CO)C(O)C1N (stereo not given)	> 100 µM (inactive)	> 100 µM (inactive)	> 100 µM (inactive)	> 100	> 100 µM (inactive)	> 100 µM (inactive)	> 100 µM (inactive)	> 100 µM (inactive)	> 100 µM (inactive)	> 100 µM (inactive)	> 100 µM (inactive)	> 100 µM (inactive)	> 100 µM (inactive)	> 100 µM (inactive)	> 100 µM (inactive)	> 100 µM (inactive)	> 100 µM (inactive)	> 100 µM (inactive)	> 100 µM (inactive)	> 100 µM (inactive)
O=C(O)C(F)(F)C(F)(F)C(F)(F)C(F)(F)C(=O)O	> 100 µM (inactive)	> 100 µM (inactive)	> 100 µM (inactive)	> 100	> 100 µM (inactive)	> 100 µM (inactive)	> 100 µM (inactive)	> 100 µM (inactive)	> 100 µM (inactive)	> 100 µM (inactive)	> 100 µM (inactive)	> 100 µM (inactive)	> 100 µM (inactive)	> 100 µM (inactive)	> 100 µM (inactive)	> 100 µM (inactive)	> 100 µM (inactive)	> 100 µM (inactive)	> 100 µM (inactive)	> 100 µM (inactive)
CC(=O)c1ccccc1NS(=O)(=O)c1ccc2nc(C)n(NS(=O)(=O)c3ccccc3C(C)=O)c(=O)c2c1	> 100 µM (inactive)	> 100 µM (inactive)	> 100 µM (inactive)	> 100	> 100 µM (inactive)	> 100 µM (inactive)	> 100 µM (inactive)	> 100 µM (inactive)	> 100 µM (inactive)	> 100 µM (inactive)	> 100 µM (inactive)	> 100 µM (inactive)	> 100 µM (inactive)	> 100 µM (inactive)	> 100 µM (inactive)	> 100 µM (inactive)	> 100 µM (inactive)	> 100 µM (inactive)	> 100 µM (inactive)	> 100 µM (inactive)
